Reference: patent US8946124B2, “Substituted 3-(biphenyl-3-yl)-8,8-difluoro-4-hydroxy-1-azaspiro[4.5]dec-3-en-2-ones for therapy and halogen-substituted spirocyclic ketoenols” (Bayer Intellectual Property GmbH, priority 2011, dated 2015)

Legend:
[1] = Octanol/water distribution coefficient (log P/D), isocratic HPLC method; assay type: physicochemical; details: pH 7.4; mean (range, n); read-out: logP/D pH 7.4
Excerpt: The distribution coefficient octanol/water P or D is a key parameter for estimating membrane penetration and permeability. It is defined as the ratio of the equilibrium concentrations of a substance in the two-phase system octanol/water.
[formula] P=partition D=distribution c(octanol)=concentration of the substance in the octanol phase c(water)=concentration of the substance in the aqueous phase
It is usually stated in form of the decadic logarithm (log P or log D).
log P describes the distribution behavior of a substance exclusively present in its neutral form. logD describes the distribution behavior of a substance at a certain pH; depending on the ionisation constant pKa of the substance, some of the substance may be present in ionic form, and some in neutral form.
The log P/D of the active compounds was determined using an isocratic HPLC method (HPLC=high performance liquid chromatography) (literature: OECD Guideline for Testing of Chemicals No. 117). The method is based on the correlation of the HPLC retention time of the test substance to that of reference substances with known distribution coefficients.
The test substance was employed as a 10 mM solution in DMSO (DMSO=dimethyl sulfoxide). 10 μl of this solution were made up to 100 μl with a methanol/water mixture in a ratio of 7+3.
The nine reference substances were dissolved individually in methanol. 100 μl each of the stock solutions were added to an HPLC vial and mixed with 300 μl of water.
A formamide solution was used to determine the hold-up time. To this end, 7 mg of formamide were dissolved in 10 ml of methanol. 100 μl of this stock solution were mixed with 500 μl of methanol and 200 μl of water.
All solutions were chromatographed using a flow rate of 1.00 ml/min.
Injection Protocol: formamide, references, test substance 1, test substance 2, . . . , formamide, references.
Evaluation of the retention times was carried out in a diode array detector (DAD) at 200-400 nm. Via the molecular mass, the identity of the test substance was checked using the downstream mass spectrometer.
The HPLC run was evaluated using the Waters software Masslynx 4.1.
The log P/D values were calculated using the software “POW Determination” (proprietary development).

[2] = Pharmacokinetic parameters in the rat (i.v. and intragastric); assay type: in vivo; details: intragastric vs. i.v.
Procedure: For this, the test substances were applied in dissolved form both for intravenous, and for intragastric application, wherein compatible solubilizers such as PEG400 and/or ethanol were used in a compatible amount.
The test substances were applied at a dose of 0.1-1 mg/kg. Administration was as a bolus injection in the male rat and as an infusion in the female dog (15 min). At various time points after the bolus injection, and before and after the 15-minute infusion, blood samples of about 100-150 μl were removed via a catheter either from the jugular vein (rat) or from the saphenous vein (dog). Lithium-heparin was added as anticoagulant to the blood samples and they were stored in a refrigerator until required for further processing. After centrifugation of the samples for 15 min at 3000 rpm, an aliquot of 100 μl was taken from the supernatant (plasma) and was precipitated by adding 400 μl of cold ACN or methanol (absolute). The precipitated samples were frozen-out at […] overnight, then centrifuged again at 3000 rpm for 15 min, before 150 μl of the clear supernatant were removed to determine the concentration. The analysis was effected by means of an Agilent 1200 HPLC system with connected LCMS/MS detection. […]

[3] = Maximum tolerated dose (MTD) in the mouse; assay type: in vivo; details: female nude mice, 21 days
Procedure: The MTD was defined as the highest dose which could be administered without any animal dying during the treatment phase, and without any body weight loss of more than 10% compared to the initial weight.
Example 1-1 was administered to female nude mice (NMRI nu/nu):
(§1) Administration route: per os
• (Solutol HS15: polyoxyethylene ester of 12-hydroxystearic acid) Administration volume:10 ml/kg Protocol: see Table 7
The treatment phase was followed by an observation phase of 21 days.

[4] = test system: PC-3 prostate carcinoma xenograft; test: In-vivo efficacy in the PC3 xenograft model in the mouse; details: 17 days, 2 administrations per day; for T/C: final tumor weight
Procedure: as §1
Administration volume: 10 ml/kg

Spodoptera frugiperda = Spodoptera frugiperda test (SPODFR spray treatment); assay type: in vivo; details: 500 g/ha, after 7 days
Excerpt: (§2) Solvents: 78.0 parts by weight of acetone

Myzus persicae = test: Myzus test (MYZUPE spray treatment); assay type: in vivo; details: 500 g/ha, after 6 days
Tetranychus urticae = test: Tetranychus test, OP-resistant (TETRUR spray treatment); assay type: in vivo; details: 100 g/ha, after 6 days
Procedure: as §2
After 6 days, the effect in % is determined.
Tetranychus Test, OP-Resistant (TETRUR Spray Treatment)

Phaedon cochleariae = test: Phaedon test (PHAECO spray treatment); details: 500 g/ha, after 7 days
[5] = 80 mg/kg day 1-3, 70 mg/kg from day 4 onwards, per os

## Cc1ccc(-c2ccc(Cl)c(F)c2)cc1C1=C(O)C2(CCC(F)(F)CC2)NC1=O [Example 1-1, 3-(4′-Chloro-3′-fluoro-4-methylbiphenyl-3-yl)-8,8-difluoro-4-hydroxy-1-azaspiro[4.5]dec-3-en-2-one]
[1]
  chromatographic logD: 1.9
[2]
  F: 95%
[3]; 12.5 mg/kg per os, 1 administration per day
  Deaths: 0 of 4
[3]; 25 mg/kg per os, 1 administration per day
  Deaths: 0 of 4
[3]; 50 mg/kg per os, 1 administration per day
  Deaths: 0 of 4
[3]; 50 mg/kg per os, 2 administrations per day
  Deaths: 0 of 4
[3]; 75 mg/kg per os, 1 administration per day
  Deaths: 0 of 4
[3]; 100 mg/kg per os, 1 administration per day
  Deaths: 0 of 4
[4]; 40 mg/kg per os
  Deaths: 0 of 9
  T/C: 0.26
[4]; [5]
  Deaths: 0 of 9
  T/C: 0.26
Spodoptera frugiperda
  effect in % (caterpillars killed): 100%
Myzus persicae
  effect in % (aphids killed): 90%
Tetranychus urticae
  effect in % (spider mites killed): 90%
Phaedon cochleariae
  effect in % (beetle larvae killed): 100%
